Data reported in PMC8149581 (Chemistry of Heterocyclic Compounds, 2021).
Converted amounts (≈) assume the structure as drawn.

tested on: influenza A/Puerto Rico/8/34 (H1N1) virus; type: cell-based

SMILES | IC50 (antiviral activity)
Nc1c(Br)cc([N+](=O)[O-])cc1-c1nnn(C23CC4CC(CC(C4)C2)C3)n1 [Compound 3h, 2-[2-(Adamantan-1-yl)-2 H -tetrazol-5-yl]-6-bromo-4-nitroaniline] | 15 ± 3 µg/mL (≈ 35.8 µM)
Nc1cc(-c2nnn(C34CC5CC(CC(C5)C3)C4)n2)ccc1O [Compound 3i, 4-[2-(Adamantan-1-yl)-2 H -tetrazol-5-yl]-2-aminophenol] | 15 ± 2 µg/mL (≈ 48.2 µM)
CC(N)C12CC3CC(CC(C3)C1)C2 (stereo not drawn) [Rimantadine, reference compound] | 12 ± 2 µg/mL (≈ 66.9 µM)
